Experimental data published in patent US11034692B1 (Genentech, Inc., priority 2017, dated 2021).

What follows are compounds tested against HPK1 (Homo sapiens, UniProt Q92918) (assay: HPK1 Lantha Binding Assay ("Lanth")). Settings: Table B1-1, read-out: HPK1 Ki (μM) (Lanth).
How it was run: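 TR-FRET tracer displacement with 2 nM GST-tagged kinase, 2 nM Eu-anti-GST antibody and 15 nM Tracer222 at 23 C. Enzyme–antibody preincubated 1 h with compound, then tracer added for 1 h; 340 nm excitation, 615/665 nm emission. Ki from Morrison fit over an 11-point 5-fold dilution.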

Sequence of HPK1 (Q92918 whole entry, looked up): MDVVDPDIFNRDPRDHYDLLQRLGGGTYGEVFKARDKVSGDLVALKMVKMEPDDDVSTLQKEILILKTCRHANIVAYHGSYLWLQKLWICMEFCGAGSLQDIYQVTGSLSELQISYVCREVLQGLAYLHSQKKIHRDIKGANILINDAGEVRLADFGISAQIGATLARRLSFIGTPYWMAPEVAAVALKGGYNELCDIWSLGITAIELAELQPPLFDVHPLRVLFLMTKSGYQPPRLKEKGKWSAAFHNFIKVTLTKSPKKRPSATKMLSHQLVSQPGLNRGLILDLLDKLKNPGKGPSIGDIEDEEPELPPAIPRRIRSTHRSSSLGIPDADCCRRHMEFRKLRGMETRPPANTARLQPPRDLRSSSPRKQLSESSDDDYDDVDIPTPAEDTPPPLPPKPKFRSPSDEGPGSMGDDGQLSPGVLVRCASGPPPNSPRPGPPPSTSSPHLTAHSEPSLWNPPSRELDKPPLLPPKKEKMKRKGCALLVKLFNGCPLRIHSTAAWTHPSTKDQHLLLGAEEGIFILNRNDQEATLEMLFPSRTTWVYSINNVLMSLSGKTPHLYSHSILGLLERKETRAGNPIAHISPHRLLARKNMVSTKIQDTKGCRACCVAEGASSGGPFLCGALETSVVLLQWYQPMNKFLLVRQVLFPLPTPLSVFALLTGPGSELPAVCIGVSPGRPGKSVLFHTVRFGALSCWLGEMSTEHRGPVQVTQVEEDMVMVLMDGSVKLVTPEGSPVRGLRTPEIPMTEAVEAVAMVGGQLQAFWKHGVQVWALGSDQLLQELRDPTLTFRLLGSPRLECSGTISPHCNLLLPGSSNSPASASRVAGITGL

Structure (SMILES) | Ki [nM]
Cc1ccncc1-c1cc2cc(NC(=O)[C@@H]3C[C@@H]3C(=O)N(C)C)ncc2c(N)n1 (racemic) [Compound 136, (±)-cis-N1-(8-amino-6-(4-methylpyridin-3-yl)-2,7-naphthyridin-3-yl)-N2,N2-dimethylcyclopropane-1,2-dicarboxamide] | 130
CCNC(=O)[C@H]1C[C@H]1C(=O)Nc1cc2cc(-c3cnccc3C)nc(N)c2cn1 (racemic) [Compound 137, (±)-(cis)-N1-(8-amino-6-(4-methylpyridin-3-yl)-2,7-naphthyridin-3-yl)-N2-ethylcyclopropane-1,2-dicarboxamide] | 110
Cc1ccncc1-c1cc2cc(NC(=O)[C@H]3C[C@@H]3C(=O)N(C)C)ncc2c(N)n1 (racemic) [Compound 138, (±)-trans-N1-(8-amino-6-(4-methylpyridin-3-yl)-2,7-naphthyridin-3-yl)-N2,N2-dimethylcyclopropane-1,2-dicarboxamide] | 32
Cc1cc2c(cc1-c1cc3cc(NC(=O)[C@H]4C[C@@H]4C#N)ncc3c(N)n1)oc(=O)n2C (racemic) [Compound 142, (±)-trans-N-(8-amino-6-(3,5-dimethyl-2-oxo-2,3-dihydrobenzo[d]oxazol-6-yl)-2,7-naphthyridin-3-yl)-2-cyanocyclopropanecarboxamide] | 1.4
Cc1cc2[nH]c(=O)oc2cc1-c1cc2cc(NC(=O)[C@@H]3C[C@H]3c3cn[nH]c3)ncc2c(N)n1 (racemic) [Compound 144, (±)-trans-N-[8-amino-6-(5-methyl-2-oxo-3H-1,3-benzoxazol-6-yl)-2,7-naphthyridin-3-yl]-2-(1H-pyrazol-4-yl)cyclopropanecarboxamide] | 1.1
COc1ccc(Cn2cncc2[C@@H]2C[C@H]2C(=O)Nc2cc3cc(-c4cnccc4C)nc(N)c3cn2)cc1 (racemic) [Compound 145, (±)-trans-N-[8-amino-6-(4-methyl-3-pyridyl)-2,7-naphthyridin-3-yl]-2-[3-[(4-methoxyphenyl)methyl]imidazol-4-yl]cyclopropanecarboxamide] | 2
CCS(=O)(=O)n1cc([C@H]2C[C@@H]2C(=O)Nc2cc3cc(-c4cnccc4C)nc(N)c3cn2)cn1 (racemic) [Compound 146, (±)-trans-N-[8-amino-6-(4-methyl-3-pyridyl)-2,7-naphthyridin-3-yl]-2-(1-ethylsulfonylpyrazol-4-yl)cyclopropanecarboxamide] | 0.02
Cc1ccncc1-c1cc2cc(NC(=O)[C@@H]3C[C@]34CCN(S(C)(=O)=O)C4)ncc2c(N)n1 (racemic) [Compound 148, (±)-trans-N-(8-amino-6-(4-methylpyridin-3-yl)-2,7-naphthyridin-3-yl)-5-(methylsulfonyl)-5-azaspiro[2.4]heptane-1-carboxamide] | 2.8
Cc1ccncc1-c1cc2cc(NC(=O)[C@H]3C[C@]34CCN(S(C)(=O)=O)C4)ncc2c(N)n1 (racemic) [Compound 149, (±)-cis-N-(8-amino-6-(4-methylpyridin-3-yl)-2,7-naphthyridin-3-yl)-5-(methylsulfonyl)-5-azaspiro[2.4]heptane-1-carboxamide] | 0.78
Cc1c(N)cncc1-c1cc2cc(NC(=O)[C@@H]3C[C@H]3C#N)ncc2c(N)n1 (racemic) [Compound 165, (±)-trans-N-(8-amino-6-(5-amino-4-methylpyridin-3-yl)-2,7-naphthyridin-3-yl)-2-cyanocyclopropanecarboxamide] | 0.95
CC(=O)N1CCC([C@@H]2C[C@H]2C(=O)Nc2cc3cc(-c4cnccc4C)nc(N)c3cn2)CC1 (racemic) [Compound 166, (±)-trans-2-(1-acetylpiperidin-4-yl)-N-(8-amino-6-(4-methylpyridin-3-yl)-2,7-naphthyridin-3-yl)cyclopropanecarboxamide] | 1.5
Cc1cc(-c2ccc[nH]c2=O)ncc1-c1cc2cc(NC(=O)[C@H]3C[C@H]3F)ncc2c(N)n1 (racemic) [Compound 167, (±)-cis-N-(8-amino-6-(4-methyl-6-(2-oxo-1,2-dihydropyridin-3-yl)pyridin-3-yl)-2,7-naphthyridin-3-yl)-2-fluorocyclopropanecarboxamide] | 9.4
Cc1ccncc1-c1cc2cc(NC(=O)NC(C)CO)ncc2c(N)n1 (racemic) [Compound 177, 1-(8-amino-6-(4-methylpyridin-3-yl)-2,7-naphthyridin-3-yl)-3-(1-hydroxypropan-2-yl)urea] | 8.5
Cc1ccncc1-c1cc2cc(NC(=O)Nc3cnn(C(C)C#N)c3)ncc2c(N)n1 (racemic) [Compound 178, 1-[8-amino-6-(4-methyl-3-pyridyl)-2,7-naphthyridin-3-yl]-3-[1-(1-cyanoethyl)pyrazol-4-yl]urea] | 0.25
Cc1cc(N2CCC(N)C2)ncc1-c1cc2cc(NC(=O)C3CC3F)ncc2c(N)n1 (racemic) [Compound 179, (±)-cis-N-[8-amino-6-[6-[(3S)-3-aminopyrrolidin-1-yl]-4-methyl-3-pyridyl]-2,7-naphthyridin-3-yl]-2-fluoro-cyclopropanecarboxamide] | 2.9
CNC(=O)c1c(C)c(-c2cc3cc(NC(=O)[C@H]4C[C@@H]4C#N)ncc3c(N)n2)c(C)n1C (racemic) [Compound 180, (±)-trans-4-[1-amino-6-[[trans-2-cyanocyclopropanecarbonyl]amino]-2,7-naphthyridin-3-yl]-N,1,3,5-tetramethyl-pyrrole-2-carboxamide] | 44

Structure (SMILES) | Ki [nM]
N#C[C@H]1C[C@@H]1C(=O)Nc1cc2cc(-c3cnccc3CCO)nc(N)c2cn1 (racemic) [Compound 191, (±)-trans-N-(8-amino-6-(4-(2-hydroxyethyl)pyridin-3-yl)-2,7-naphthyridin-3-yl)-2-cyanocyclopropanecarboxamide] | 2.7
Cc1ccncc1-c1nc(N)c2cnc(NC(=O)C3CC3)cc2c1C1=CC(O)CC1 (racemic) [Compound 204, N-(8-amino-5-(3-hydroxycyclopent-1-enyl)-6-(4-methylpyridin-3-yl)-2,7-naphthyridin-3-yl)cyclopropanecarboxamide] | 0.99
Cc1ccncc1-c1nc(N)c2cnc(NC(=O)[C@@H]3C[C@H]3CC#N)cc2c1C (racemic) [Compound 205, (+/−)-trans-N-(8-amino-5-methyl-6-(4-methylpyridin-3-yl)-2,7-naphthyridin-3-yl)-2-(cyanomethyl)cyclopropanecarboxamide] | 0.0881
Cc1ccncc1-c1nc(N)c2cnc(NC(=O)[C@H]3C[C@@H]3CC#N)cc2c1Br (racemic) [Compound 210, (+/−)-N-(8-amino-5-bromo-6-(4-methylpyridin-3-yl)-2,7-naphthyridin-3-yl)-2-(cyanomethyl)cyclopropanecarboxamide] | 0.258
Cc1ccncc1-c1cc2cc(NC(=O)[C@@H]3C[C@H]3CC#N)ncc2c(N)n1 (racemic) [Compound 212, (+/−)-trans-N-(8-amino-6-(4-methylpyridin-3-yl)-2,7-naphthyridin-3-yl)-2-(cyanomethyl)cyclopropanecarboxamide] | 0.685
Cc1ccncc1-c1cc2cc(Nc3cnn(C(C)CO)c3)ncc2c(N)n1 (racemic) [Compound 213, (+/−)-2-(4-(8-amino-6-(4-methylpyridin-3-yl)-2,7-naphthyridin-3-ylamino)-1H-pyrazol-1-yl)propan-1-ol] | 0.957
CNc1cncc(-c2cc3cc(NC(=O)[C@@H]4C[C@@H]4F)ncc3c(N)n2)c1C (racemic) [Compound 216, (+/−)-cis-N-(8-amino-6-(4-methyl-5-(methylamino)pyridin-3-yl)-2,7-naphthyridin-3-yl)-2-fluorocyclopropanecarboxamide] | 3.53
CC(=O)N1CCC(n2cc(Nc3cc4cc(-c5cnccc5C)nc(N)c4cn3)cn2)C1 (racemic) [Compound 218, (+/−)-1-(3-(4-(8-amino-6-(4-methylpyridin-3-yl)-2,7-naphthyridin-3-ylamino)-1H-pyrazol-1-yl)pyrrolidin-1-yl)ethanone] | 0.02
Cc1ccncc1-c1cc2cc(Nc3cnn([C@H]4CCN(C5COC5)C[C@@H]4O)c3)ncc2c(N)n1 (racemic) [Compound 220, (+/−)-trans-4-(4-(8-amino-6-(4-methylpyridin-3-yl)-2,7-naphthyridin-3-ylamino)-1H-pyrazol-1-yl)-1-(oxetan-3-yl)piperidin-3-ol] | 0.592
Cc1ccncc1-c1cc2cc(Nc3cc(C(C)O)n(C)n3)ncc2c(N)n1 (racemic) [Compound 221, (+/−)-1-(3-(8-amino-6-(4-methylpyridin-3-yl)-2,7-naphthyridin-3-ylamino)-1-methyl-1H-pyrazol-5-yl)ethanol] | 0.026
N#Cc1ccccc1-c1cc2cc(NC(=O)[C@H]3C[C@@H]3C#N)ncc2c(N)n1 (racemic) [Compound 224, (+/−)-trans-N-(8-amino-6-(2-cyanophenyl)-2,7-naphthyridin-3-yl)-2-cyanocyclopropanecarboxamide] | 15.2
CC(C)(O)Cc1ccncc1-c1cc2cc(NC(=O)[C@H]3C[C@@H]3C#N)ncc2c(N)n1 (racemic) [Compound 225, (+/−)-trans-N-(8-amino-6-(4-(2-hydroxy-2-methylpropyl)pyridin-3-yl)-2,7-naphthyridin-3-yl)-2-cyanocyclopropanecarboxamide] | 84.2
CNC(=O)c1cncc(-c2cc3cc(NC(=O)[C@@H]4C[C@@H]4F)ncc3c(N)n2)c1C (racemic) [Compound 226, cis-5-(1-amino-6-(-2-fluorocyclopropanecarboxamido)-2,7-naphthyridin-3-yl)-N,4-dimethylnicotinamide] | 58.6
N#CCc1ccncc1-c1cc2cc(NC(=O)[C@H]3C[C@@H]3C#N)ncc2c(N)n1 (racemic) [Compound 227, (+/−)-trans-N-(8-amino-6-(4-(cyanomethyl)pyridin-3-yl)-2,7-naphthyridin-3-yl)-2-cyanocyclopropanecarboxamide] | 38.7
COCc1ccncc1-c1cc2cc(NC(=O)[C@H]3C[C@@H]3C#N)ncc2c(N)n1 (racemic) [Compound 228, (+/−)-trans-N-(8-amino-6-(4-(methoxymethyl)pyridin-3-yl)-2,7-naphthyridin-3-yl)-2-cyanocyclopropanecarboxamide] | 11
